Holding throughout (format): ADME
Data set [1] deals with T1, Albumin (Homo sapiens, UniProt P02768). Kind of data set: Binding affinity to HSA assessed as Stern-Volmer quenching constant at 303 K by fluorescence spectrophotometer assay. Particulars: isolated protein; call rule not given here.
In data set [2] the target is T1, Albumin. Kind of data set: Binding affinity to HSA assessed as decrease in fluorescence intensity at 100 uM at by fluorescence spectrophotometer assay. Set-up: scale not given: the % may be the effect or the level left. Particulars: isolated protein.
The target of data set [3] is T1, Albumin. Kind of data set: Binding affinity to HSA assessed as Stern-Volmer quenching constant at 300 K by fluorescence spectrophotometer assay. To be noted: isolated protein.
Data set [4] deals with T1, Albumin. Kind of data set: Binding affinity to HSA assessed as quenching constant at 298 K by fluorescence spectrophotometer assay. Particulars: isolated protein.
The target of data set [5] is T1, Albumin. Kind of data set: Binding affinity to HSA assessed as Stern-Volmer quenching constant at 298 K by fluorescence spectrophotometer assay. Particulars: isolated protein.
Data set [6] deals with T1, Albumin. Kind of data set: Binding affinity to HSA assessed as binding constant at 300 K by fluorescence spectrophotometer assay. Particulars: isolated protein.
Data set [7] concerns the target T1, Albumin. Description: Binding affinity to HSA assessed as binding constant at 303 K by fluorescence spectrophotometer assay. To be noted: isolated protein.
In data set [8] the target is T1, Albumin. Kind of data set: Binding affinity to HSA […] site assessed as quenching in presence of ibuprofen at 0 to 100 uM after 5 mins by fluorescence based site competition assay. Particulars: isolated protein.
Data set [9] has as its target T1, Albumin. Kind of data set: Binding affinity to HSA […] site assessed as quenching in presence of warfarin at 0 to 100 uM after 5 mins by fluorescence based site competition assay. To be noted: isolated protein, dose 0-100 µM.
The target of data set [10] is T1, Albumin. Description: Binding affinity to HSA assessed as quenching constant at 303 K by fluorescence spectrophotometer assay. Particulars: isolated protein.
In data set [11] the target is T1, Albumin. Kind of data set: Binding affinity to HSA assessed as change in enthalpy at 298 K by Van't Hoff plot analysis. Particulars: isolated protein.
Data set [12] deals with T1, Albumin. Description: Binding affinity to HSA […] site assessed as quenching in presence of digitoxin at 0 to 100 uM after 5 mins by fluorescence based site competition assay. Particulars: isolated protein.
The target of data set [13] is T1, Albumin. Kind of data set: Binding affinity to HSA assessed as binding constant at 298 K by fluorescence spectrophotometer assay. To be noted: isolated protein.
The target in data set [14] is T1, Albumin. Description: Binding affinity to HSA assessed as change in entropy at 298 K by Van't Hoff plot analysis. Particulars: isolated protein.
For data set [15], the target named is T1, Albumin. Kind of data set: Binding affinity to HSA assessed as quenching constant at 300 K by fluorescence spectrophotometer assay. To be noted: isolated protein.
Data set [16] deals with T1, Albumin. Description: Binding affinity to HSA assessed as causing the change of the microenvironment of tyrosine residue by measuring red shift at 0 to 100 uM after 5 mins by fluorescence based Synchronous fluorescence spectroscopy. Particulars: isolated protein, dose 0-100 µM.

T1 sequence (P02768 whole entry): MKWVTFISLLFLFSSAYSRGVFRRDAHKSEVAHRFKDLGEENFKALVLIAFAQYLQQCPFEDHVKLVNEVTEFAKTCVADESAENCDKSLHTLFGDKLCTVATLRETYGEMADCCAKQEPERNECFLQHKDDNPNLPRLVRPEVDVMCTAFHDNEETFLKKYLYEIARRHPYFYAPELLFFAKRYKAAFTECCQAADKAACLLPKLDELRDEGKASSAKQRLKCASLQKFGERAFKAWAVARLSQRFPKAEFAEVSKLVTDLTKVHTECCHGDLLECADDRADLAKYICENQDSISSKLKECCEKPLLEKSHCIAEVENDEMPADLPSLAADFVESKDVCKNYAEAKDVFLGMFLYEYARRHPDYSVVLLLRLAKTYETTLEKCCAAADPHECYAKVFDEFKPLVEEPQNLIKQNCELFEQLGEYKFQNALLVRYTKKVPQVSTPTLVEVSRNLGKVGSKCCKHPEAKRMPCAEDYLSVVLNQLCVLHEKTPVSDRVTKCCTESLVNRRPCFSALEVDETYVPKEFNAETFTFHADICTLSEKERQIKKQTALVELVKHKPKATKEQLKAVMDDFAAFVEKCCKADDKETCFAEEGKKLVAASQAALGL

Consider `Cc1ccc(-c2nc3ccccc3c(-c3c[nH]c4ccccc34)[n+]2[O-])cc1`, for which the KSV in data set [1] is 1.33 10^4L/mol; in data set [3], 1.39 10^4L/mol; in [5] it was 1.4 10^4L/mol. Also, the Activity in data set [2] is 49.2%; in data set [8] it was “Active”; in [9], “Not Active”; in [12] it was “Active”; in data set [16] it was 9 nm. Besides, the Kq is given as 1.4 10^12L/mol.s in [4], 1.33 10^12L/mol.s in data set [10] and 1.39 10^12L/mol.s in data set [15]. Besides, the K in data set [6] is reported as 1.7 10^4L/mol; in data set [7], 1.03 10^4L/mol; in [13], 2.47 10^4L/mol. Also, the deltaH in [11] turned out to be 33.227 kcal/mol. In addition, the deltaS in data set [14] was determined as 436 J/mol·K.

The record behind these values is ChEMBL document CHEMBL4665868, “Study on the interaction between 4-(1H-indol-3-yl)-2-(p-tolyl)quinazoline-3-oxide and human serum albumin” (Bioorg Med Chem, 2020).
